Experimental data reported in BindingDB's records for doi:10.1016/0960-894X(96)00221-1 (1996).

Experiment: Compound was evaluated for inhibition of tyrosinase enzyme.

Structure (SMILES)	IC50 [µM]
CC(C)C[C@H](NC(=O)OCc1cc(=O)c(O)co1)C(=O)OCc1cc(=O)c(O)co1 [(S)-2-(5-Hydroxy-4-oxo-4H-pyran-2-ylmethoxycarbonylamino)-4-methyl-pentanoic acid 5-hydroxy-4-oxo-4H-pyran-2-ylmethyl ester]	2
O=C(N[C@@H](Cc1ccccc1)C(=O)O)OCc1cc(=O)c(O)co1 [(S)-2-(5-Hydroxy-4-oxo-4H-pyran-2-ylmethoxycarbonylamino)-3-phenyl-propionic acid]	8
C[C@H](NC(=O)OCc1cc(=O)c(O)co1)C(=O)OCc1cc(=O)c(O)co1 [(S)-2-(5-Hydroxy-4-oxo-4H-pyran-2-ylmethoxycarbonylamino)-propionic acid 5-hydroxy-4-oxo-4H-pyran-2-ylmethyl ester]	3.03
CC(C)[C@H](NC(=O)OCc1cc(=O)c(O)co1)C(=O)OCc1cc(=O)c(O)co1 [(S)-2-(5-Hydroxy-4-oxo-4H-pyran-2-ylmethoxycarbonylamino)-3-methyl-butyric acid 5-hydroxy-4-oxo-4H-pyran-2-ylmethyl ester]	2.39
CC[C@H](C)[C@H](NC(=O)OCc1cc(=O)c(O)co1)C(=O)OCc1cc(=O)c(O)co1	0.7
CC(C)C[C@H](NC(=O)OCc1cc(=O)c(O)co1)C(=O)O [(S)-2-(5-Hydroxy-4-oxo-4H-pyran-2-ylmethoxycarbonylamino)-4-methyl-pentanoic acid]	14.5
O=C(N[C@@H](Cc1ccccc1)C(=O)OCc1cc(=O)c(O)co1)OCc1cc(=O)c(O)co1 [(S)-2-(5-Hydroxy-4-oxo-4H-pyran-2-ylmethoxycarbonylamino)-3-phenyl-propionic acid 5-hydroxy-4-oxo-4H-pyran-2-ylmethyl ester]	0.06

Now from value to compound:

IC50 [µM]	Structure (SMILES)
23.2	C[C@H](NC(=O)OCc1cc(=O)c(O)co1)C(=O)O [(S)-2-(5-Hydroxy-4-oxo-4H-pyran-2-ylmethoxycarbonylamino)-propionic acid]
16.7	CC(C)[C@H](NC(=O)OCc1cc(=O)c(O)co1)C(=O)O [(S)-2-(5-Hydroxy-4-oxo-4H-pyran-2-ylmethoxycarbonylamino)-3-methyl-butyric acid]
15.3	CC[C@H](C)[C@H](NC(=O)OCc1cc(=O)c(O)co1)C(=O)O
